Measured values taken from US5942494A, “Stimulation of gene expression and synthesis of heat shock protein 72/73 (HSP 70)” (The Trustees of Columbia University in the City of New York, priority 1996, dated 1999).
Square brackets hold non-standard residues; d marks the D form. Peptide text beside a SMILES is read from it. Nle = CCCC[C@H](N)C(=O)O

Legend:
Hsp70 = Hsp70 levels by denaturing immunoprecipitation of [3H]-leucine radiolabeled HepG2 cells; assay type: cell-based, human; conditions: for Hsp70 levels after removal of ALLN: 4-hour preincubation
Experimental: The HepG2 cell culture conditions were maintained as previously described (Dixon, et al., 1991). The cells were seeded into collagen-pre-coated dishes or six-well tissue culture plates and grown in complete medium containing minimum essential medium (MEM) with 0.1 mM nonessential amino acids, 1.0 mM sodium pyruvate, penicillin/streptomycin, and 10% fetal bovine serum. Cells were fed fresh complete medium every 3 days and maintained in a 5% CO2 incubator. All experiments were performed by using exponentially growing cells at 90-95% confluency. For heat shock treatment, the dishes were sealed with Parafilm and immersed in a water bath at 42° C. for indicated durations of time. Cells were incubated with ALLN alone at indicated concentrations or combined with other chemicals at 37° C. Cells were also incubated with different protease inhibitors alone at indicated concentrations or combined with other chemicals at 37° C.
HepG2 cells were preincubated for 4 hours in serum-free MEM and then radiolabeled with ^3 H-Leucine (150 μCi/ml) in a serum-free, leucine-free medium. Preincubation and labeling media each contained either 1.5% bovine serum albumin (BSA) alone, or BSA plus ALLN (40 μg/ml except as otherwise indicated), or BSA plus other protease inhibitors at concentrations indicated in the figure legends. At the indicated times, cells were removed from the 37° C. incubator and placed on ice, washed with cold phosphate-buffer saline (PBS) twice and lysed with lysis buffer containing 1% Triton X-100 (TX100), 1% deoxycholic acid (DOC) and 0.1% SDS in PBS containing proteinase inhibitors: 2 mM phenylmethylsulfonyl fluoride (PMSF); 2 μg/ml ALLN; 2 μg/ml leupeptin; and 2 μg/ml aprotinin. After a 30 min. incubation with lysis buffer at 4° C., the lysates were centrifuged at 14,000 g in a microcentrifuge for 5 min., and the supernatants were adjusted to 1% SDS concentration and boiled for 5 min. to denature the proteins. 1% TX100 was then added to dilute the lysates to a final concentration of 0.1% SDS. Cell lysates containing equal amounts of trichloroacetic acid (TCA)-insoluble radioactivity were used for immunoprecipitations by incubating with individual monoclonal antibody (1 μg/ml) for 2.5 hours at 4° C. Protein-A Sepharose 4B was added afterwards and the lysates incubated for another 1.5 hours at 4° C. to collect the immunocomplexes. After washing four times with 1×NET buffer (containing 0.5% TX100, 0.1% SDS), the immunocomplexes were mixed with sample buffer and boiled for 5 min. Following centrifugation, the supernatants were aliquoted for scintillation counting and for 3-15% gradient polyacrymide gel electrophoresis (SDS-PAGE) . The gels were later subjected to fluorography. All values are presented as the mean ± S.D. from three individual experiments except as otherwise indicated.
Denaturing immunoprecipitation was chosen because Hsp70 is a major cytosolic chaperone protein and it is co-immunoprecipitated with a number of other proteins under non-denaturingconditions (Beckmann, et al., 1990; Zhou, et al., 1995).

Hsp25 = test: Immunoprecipitation of Hsp25 from radiolabeled HepG2 cells; assay type: cell-based, human; conditions: HepG2, ALLN 4 hours
Experimental: FIGS. 7A-7B: Effects of ALLN on the biosynthesis of other members of Hsp family and related proteins. HepG2 cells were pre-treated and radiolabeled with or without ALLN for 4 hours as described in FIG. 1. Cell lysates were used for SDS-PAGE (A), or for immunoprecipitation with anti-Hsp25, -Hsp27, -Hsp60, -Hsp70, -Hsp86, -Hsp90, -Hsp104, -Bip, or -albumin antibodies respectively (1 μg/ml) (B). Because the anti-Hsp25, -Hsp27, -Hsp60 and Hsp90 antibodies are from a rat source, rabbit anti-rat IgG antibody was added after the first incubation, and the incubation was extended for another 1 hour at 4° C. before collection with protein A-Sepharose.Immunoprecipitates were loaded for SDS-PAGE and aliquoted for scintillation counting and plotting. Each value was presented as mean ±S.D. from three individual culture dishes.
HepG2 cells were preincubated for 4 hours in serum-free MEM and then radiolabeled with ^3 H-Leucine (150 μCi/ml) in a serum-free, leucine-free medium. […] Cell lysates containing equal amounts of trichloroacetic acid (TCA)-insoluble radioactivity were used for immunoprecipitations by incubating with individual monoclonal antibody (1 μg/ml) for 2.5 hours at 4° C. […]

proteasomes = conditions: Rock, et al., 1994; cited from earlier work

CCCC[C@@H](C=O)NC(=O)[C@H](CC(C)C)NC(=O)[C@H](CC(C)C)NC(C)=O [ALLN, N-acetyl-leucyl-leucyl-norleucinal] (Ac-Leu-Leu-[Nle]-aldehyde)
Hsp70 levels after removal of ALLN (Hsp70; end of a 2-hour wash): 25 fold | Hsp70 levels after removal of ALLN (Hsp70; end of a 6-hour wash): 8 fold | Hsp70 levels after removal of ALLN (Hsp70; end of an 8-hour wash): 4 fold | Increment of newly synthesized Hsp70 levels compared with untreated cells (Hsp70; 30 min. labeling, data from several experiments): ~30 fold | Hsp70 levels induced (Hsp70; ALLN 10 μg/ml, 4 hours pre-treatment, HepG2): more than 9 fold | Increase of rate of incorporation of [3H]-leucine into Hsp70 (Hsp70; ALLN 40 μg/ml 4 hours preincubation, labeling 10-60 min, every time point): about 25 fold | Induction of Hsp70 by protease inhibitors (Hsp70; HepG2, 4 hours pre-treatment, ALLN, ALLM 40 μg/ml, leupeptin, pepstatin A 50 μg/ml, E-64d 25 μg/ml, PMSF 1 mM, aprotinin 100 KIU/ml, Benz 1 mM, CIP 200 μM): significantly induce | Induction of Hsp70 levels above baseline (Hsp70; HepG2 cells and human endothelial cells, maximal induction): up to 30 fold | Effect on Hsp25 (Hsp25): no effects | Inhibition of proteasomes (proteasomes): potent inhibitors
